Values quoted from earlier work as cited in patent US12611407B2, “Gastro-resistant high-strength formulation containing posaconazole” (Alfred E. Tiefenbacher (GmbH & Co. KG), priority 2020, dated 2026).

How the values were obtained:
[1] = not given; remark: listed apart in the source

Row | SMILES | stability in an aqueous suspension compared with form I (aqueous suspension) | water solubility compared with form I [1] | aqueous solubility [1] | stability of the crystalline form (normal storage conditions or specific stress conditions)
1 | CC[C@@H]([C@H](C)O)n1ncn(-c2ccc(N3CCN(c4ccc(OC[C@@H]5CO[C@@](Cn6cncn6)(c6ccc(F)cc6F)C5)cc4)CC3)cc2)c1=O [form IV, posaconazole] | better stability in an aqueous suspension | better water solubility | – | –
2 | CC[C@@H]([C@H](C)O)n1ncn(-c2ccc(N3CCN(c4ccc(OC[C@@H]5CO[C@@](Cn6cncn6)(c6ccc(F)cc6F)C5)cc4)CC3)cc2)c1=O [Posaconazole] | – | – | low aqueous solubility | –
3 | CC[C@@H]([C@H](C)O)n1ncn(-c2ccc(N3CCN(c4ccc(OC[C@@H]5CO[C@@](Cn6cncn6)(c6ccc(F)cc6F)C5)cc4)CC3)cc2)c1=O [form Y, posaconazole] | – | better water solubility | – | as stable as form I
